Results on four molecules are retold here after US20110014185A1, “METHODS INVOLVING GRAF POLYPEPTIDES” (priority 2008, published 2011).

In data set [1] the test system is GRAF1 BAR+PH overexpressing cells. The experiment in a line: localisation of overexpressed GFP-tagged GRAF1 BAR+PH protein, confocal microscopy. Particulars: 1 uM nocodazole for 1 hr. In kind it is cell-based. The source says:
FIG. 9 Membrane tubules generated by the GRAF1 BAR+PH domain in vivo are mobile structures dependent upon microtubules. a, Representative Coomassie-stained gel of a typical liposome co-sedimentation assay with GST-tagged BAR+PH and liposomes of different diameters quantified in FIG. 2a (P=pellet, S=supernatant). b, Confocal micrographs showing the tubular localisation of overexpressed myc-tagged BAR+PH protein in HeLa cells and the cytoplasmic localisation of a similarly overexpressed protein with a BAR domain mutation (KK131/132EE). Scale bars=10 um. c, Electron micrographs of negatively-stained liposomes incubated in the presence or absence of GST-tagged GRAF1 BAR+PH protein. Note the presence of tubular structures present with BAR+PH protein and their absence in the control incubation. Scale bars=200 nm. d, Confocal micrographs of cells overexpressing GFP-tagged GRAF1 BAR+PH protein left untreated (Panel 1) or treated with 1 uM nocodazole for 1 hr and fixed immediately (Panel 2) or left to recover for 30 mins after nocodazole washout (Panel 3). Cells were then stained for beta-tubulin (lower images). GRAF1 BAR+PH-positive tubular structures were not present in nocodazole treated cells but recovered after nocodazole washout where they are observed to colocalise with beta-tubulin. e, Live cell spinning disc confocal imaging of a GFP-tagged GRAF1 BAR+PHover expressing cell at 20° C. […]

Data set [2] has as its system HeLa cells. The experiment in a line: tubular dextran uptake by immunofluorescence. In kind it is cell-based, human. Particulars: 50 um dynasore 15 minutes before dextran, further 15 minutes. As to the method: FIG. 8 GRAF1 mediated trafficking is dependent upon dynamin and small G-proteins. a, HeLa cells incubated either with medium including vehicle (DMSO) or 50 um dynasore for 15 minutes before addition of dextran to these, cells for a further 15 minutes, (with DMSO/dynasore concentrations being retained throughout), before fixation and staining for GRAF1, dextran and paxillin. […] Note the absence of GRAF1-positive tubules in transfected cells. Scale bars=10 um.
Protein expression and purification Antibodies and constructs used are described in supplemental methods. Recombinant proteins were expressed in a BL21 (DE3) pLysS E-coli strain as Glutathione Stransferase (GST)-fusion proteins and purified using glutathione-Sepharose 4B beads (Amersham Biosciences) and gel filtration on a sephacryl S-200 column (Amersham) as previously described27. For analysis of endogenous protein expression, cell lines were grown according to instructions from American Tissue Culture Collection, harvested and lysed in 1% NP-40 in PBS supplemented with protease inhibitors. After a 20,000 g centrifugation the supernatant was analysed by SDS-PAGE and immunoblotting. […] In vitro liposome tubulation assays were performed and analysed as previously described 10. […]

Data set [3] has as its system HeLa cells. The experiment in a line: GRAF1 localisation by immunofluorescent staining. In kind it is cell-based, human. To be noted: for colocalisation of GRAF1 with focal complex markers / number of GRAF1-positive tubules: 40 uM Y-27632 for 40 minutes. As to the method:
FIG. 8 GRAF1 mediated trafficking is dependent upon dynamin and small G-proteins. a, HeLa cells incubated either with medium including vehicle (DMSO) or 50 um dynasore for 15 minutes before addition of dextran to these, cells for a further 15 minutes, (with DMSO/dynasore concentrations being retained throughout), before fixation and staining for GRAF1, dextran and paxillin. […] Note the absence of GRAF1-positive tubules in transfected cells. Scale bars=10 um. […] Note that endogenous GRAF1 tubes originate from within rings of beta1-integrins (a). […] Protein expression and purification Antibodies and constructs used are described in supplemental methods. Recombinant proteins were expressed in a BL21 (DE3) pLysS E-coli strain as Glutathione Stransferase (GST)-fusion proteins and purified using glutathione-Sepharose 4B beads (Amersham Biosciences) and gel filtration on a sephacryl S-200 column (Amersham) as previously described27. For analysis of endogenous protein expression, cell lines were grown according to instructions from American Tissue Culture Collection, harvested and lysed in 1% NP-40 in PBS supplemented with protease inhibitors. After a 20,000 g centrifugation the supernatant was analysed by SDS-PAGE and immunoblotting. Protein and lipid interaction assays Liposomes from total brain lipids (FOLCH fraction I) (Sigma Aldrich), from synthetic lipids (Avanti Polar Lipids), and liposomes of a specified diameter were generated as previously described10. Liposome binding assays for lipid specificity and curvature sensitivity was performed as previously described10. Briefly, proteins were incubated together with liposomes followed by centrifugation and analysis of the pellet and supernatant by SDS-PAGE and Coomassie staining. For immunoprecipitation experiments, rat brain cytosol was generated by homogenisation of rat brains in buffer (25 mM HEPES, 150 mM NaCl, 1 mM DTT, 0.1% Triton X-100 and protease inhibitors), before centrifugation at 50,000 rpm for 30 mins at 4i ? C. The supernatant was removed and added to protein A Sephorose 4B beads (Amersham Biosciensis) to which antibodies had been previously bound and incubated at 4° C. for 3 hrs. Beads were washed three times in buffer (25 mM HEPES, 150 mM NaCl) supplemented with 1% NP-40, and once in buffer without NP-40 before analysis by SDS-PAGE combined with immunoblotting or Coomassie staining. Pull-down experiments against rat brain cytosol using purified proteins and identification by mass-spectrometry were performed as previously described27. In vitro liposome tubulation assays were performed and analysed as previously described 10. Cell culture and transfections HeLa cells were grown in RPM1 1640 media (GIBCO) supplemented with L-Glutamine and 10% fetal bovine serum and transfected using Genejuice (Novagen) for transient protein expression. For primary cultures, rat hippocampal neurons/astrocytes were prepared by trypsin digestion and mechanical trituration from E18 or P1 Sprague-Dawley rats and plated onto poly L-lysine coated coverslips. Cells were cultured in B27-supplemented Neurobasal media. For GRAF1 depletion, HeLa cells were transfected with stealth siRNAs specific against human GRAF1 (Invitrogen) using Lipofectamine 2000 (Invitrogen) according to manufacturers instructions. Cells were cultured for an additional 48 hrs for efficient silencing of the GRAF1 expression. Stealth Block-it siRNA (Invitrogen) was used as a control. AP2 siRNA was used as previously described28. […]

For data set [4] the following is noted: acute ischaemic stroke; cited from earlier work.

The structures appear in SMILES notation. “Also recorded” adds a separate entry of the source.

Take `COC(=O)Nc1nc2ccc(C(=O)c3cccs3)cc2[nH]1` [nocodazole]: the “GRAF1 BAR+PH-positive tubular structures” value in data set [1] is “not present; also recorded: abolishes the tubular localisation”.
As for `O=C(N/N=C/c1ccc(O)c(O)c1)c1cc2ccccc2cc1O` [dynasore], the tubular dextran uptake entry in the data set with HeLa cells [2] is given as “loss of tubular endocytosis through the CLIC/GEEC pathway; also recorded: profound reduction in tubular dextran uptake; also recorded: profoundly reduced ability to endocytose dextran in tubular structures”. In addition, the “GRAF1-positive tubular structures / GRAF1 distribution” value in the data set with HeLa cells [3] (50 um dynasore) was “redistribute from tubular endocytic membranes to basal complexes; also recorded: reduction in GRAF1-positive tubular structures; also recorded: redistributed in these cells from tubular structures to basal punctae and rings”.
Regarding `O=S(=O)(c1cccc2cnccc12)N1CCCNCC1` [fasudil], the “toxicity in clinical trials” value in data set [4] is “non-toxic”.
Take `C[C@@H](N)[C@H]1CC[C@H](C(=O)Nc2ccncc2)CC1` [Y-27632]: the “colocalisation of GRAF1 with focal complex markers” value in the data set on HeLa cells [3] is “vinculin is found mostly in focal complexes where it co-localises with GRAF1”; in the data set with HeLa cells [3] (listed as Rho kinase inhibitor) it was “increased the colocalisation of GRAF1 with 1-integrin, vinculin and dynamin”. For the same molecule, the “number of GRAF1-positive tubules” value with HeLa cells [3] is “increases the number of GRAF1-positive tubules”; in the data set with HeLa cells [3] (listed as Rho kinase inhibitor) it was “dramatically increased the numbers of GRAF1-positive tubules”.
